According to US20240252432A1, “COMPOSITIONS, METHODS AND SYSTEMS FOR AEROSOL DRUG DELIVERY” (ASTRAZENECA PHARMACEUTICALS LP, priority 2021, published 2024):
Like-named read-outs stand apart in the source and are kept apart here.

How the values were obtained:
[1] = Particle size distribution by laser diffraction; format: physicochemical
Text: When referred to herein, the term “optical diameter” indicates the size of a particle as measured by the Fraunhofer diffraction mode using a laser diffraction particle size analyzer equipped with a dry powder dispenser (e.g., Sympatec GmbH, Clasthal-Zellerfeld, Germany).
Suspending particles were manufactured by spray drying an emulsion of PFOB (perfluorooctyl bromide) and water stabilized by DSPC (1,2-Distearoyl-sn-Glycero-3-Phosphocholine). […] The particle size distribution of the suspending particles was determined by laser diffraction.
Active agent particles formed of budesonide, 16,17-(butylidenebis(oxy))-11,21-dihydroxy-(11-β,16-α)-pregna-1,4-diene-3,20-dione, were formed by micronizing budesonide using a jet mill. The particle size distribution of the budesonide (BD) was determined by laser diffraction.

[2] = Aerodynamic particle size distribution by NGI of BFF formulations (Example 4); format: physicochemical; settings: dual co-suspension of budesonide and formoterol in HFO-1234ze(E); stored valve down, protected, 25° C./60% RH
[3] = cited from earlier work
[4] = Aerodynamic particle size distribution by NGI of BDA formulations (Example 5); format: physicochemical; settings: dual co-suspension of budesonide and albuterol in HFO-1234ze(E); stored valve down, protected, 25° C./60% RH

| Molecule | optical diameter below which 50% by volume of the particles lie [1] | optical diameter below which 90% by volume of the particles lie [1] | Water Solubility in Propellant ([3]; @25) | other results |
| --- | --- | --- | --- | --- |
| COc1ccc(CC(C)NCC(O)c2ccc(O)c(NC=O)c2)cc1.O=C(O)/C=C/C(=O)O (racemic) [formoterol fumarate, (±)-2-hydroxy-5-[(1RS)-1-hydroxy-2-[[(1RS)-2-(4-methoxyphenyl)-1-methylethyl]-amino]ethyl]formanilide fumarate] | smaller than 1.6 μm | smaller than 3.9 μm |  |  |
| CCCCCCCCCCCCCCCCCC(=O)OC[C@H](COP(=O)([O-])OCC[N+](C)(C)C)OC(=O)CCCCCCCCCCCCCCCCC [DSPC, 1,2-Distearoyl-sn-glycero-3-phosphocholine] |  |  |  | stability of aPSD by NGI [2]: stable for twelve months |
| FCC(F)(F)F [HFA-134a, 1,1,1,2-tetrafluoroethane] |  |  | 1100@25 ppm |  |
| FC(C(F)(F)F)C(F)(F)F [HFA-227ea, 1,1,1,2,3,3,3-Heptafluoropropane] |  |  | 610@25 ppm |  |
| CC(F)F [HFC-152a, 1,1-Difluoroethane] |  |  | 2100@25 ppm |  |
| C=C(F)C(F)(F)F [HFO-1234yf, 2,3,3,3-Tetrafluoropropene] |  |  |  | Water Solubility in Propellant ([3]; @24): 200@24 ppm |
| FC=CC(F)(F)F [HFO-1234ze, 1,3,3,3-tetrafluoropropene] |  |  |  | Water Solubility in Propellant ([3]; @20): 225@20 ppm |
| CCCC1O[C@@H]2C[C@H]3[C@@H]4CCC5=CC(=O)C=C[C@]5(C)[C@H]4[C@@H](O)C[C@]3(C)[C@]2(C(=O)CO)O1 (stereo partly drawn) [budesonide, 16,17-(butylidenebis(oxy))-11,21-dihydroxy-(11-β,16-α)-pregna-1,4-diene-3,20-dione] |  |  |  | stability of aPSD by NGI [4]: stable for twelve months; stability of aPSD by NGI [2]: stable for twelve months |
| C[N+]1(C)CCC(OC(=O)C(O)(c2ccccc2)C2CCCC2)C1.[Br-] (centres unmarked) [glycopyrrolate, Pyrrolidinium, 3-((cyclopentylhydroxyphenylacetyl)oxy)-1,1-dimethyl-, bromide] | smaller than 2.1 μm | smaller than 5 μm |  |  |
| albuterol sulfate | smaller than 1.5 μm | smaller than 3.3 μm |  |  |
